Results as given in patent US8614241B2, “Ester compound and use thereof” (Sumitomo Chemical Company, Limited, priority 2010, dated 2013).

System: German cockroaches (Blattella germanica)
Experiment: Knock-down test by spraying oil solution on German cockroaches
Format: in vivo
Conditions: 0.00625% (w/v) oil solution, 1.5 ml sprayed, ten adult German cockroaches (5 males, 5 females)
Procedure: Zero point zero zero six two five (0.00625) part of the compound of the present inventions (1) and (2) was dissolved in 10 parts of isopropyl alcohol and the solution was mixed with 89.99375 parts of deodorized kerosene to prepare a 0.00625% (w/v) oil solution.
Ten adult German cockroaches (Blattella germanica, 5 males and 5 females) were released in a test container (diameter 8.75 cm, 7.5 cm high, the bottom face is made of 16 mesh metallic wire), the inner face on which butter was applied, and the container was set at the bottom of a test chamber (bottom face: 46 cm×46 cm, height: 70 cm).
Each 1.5 ml of the oil solution of the compound of the present invention (1) and (2) was sprayed using a spray gun at a pressure of 0.4 kg/cm^2 from 60 cm higher than the upper face of the container. Thirty seconds after the spraying, the container was pulled out from the chamber. Two minutes after spraying, the number of knocked-down cockroaches was counted and a knock-down ratio was determined (repeated once). A knocked-down ratio was calculated by the following equation. Knocked-down ratio (%)=(Number of knocked-down cockroaches/Number of test cockroaches)×100 The results (2 minutes after spraying) are shown in Table 1.

| Structure (SMILES) | Knock-down ratio (%) 2 minutes after spraying |
| --- | --- |
| C#CCn1c(C)nn(COC(=O)[C@@H]2[C@@H](/C=C(C#N)/C=C/C)C2(C)C)c1=O [compound of the present invention (2), 3-methyl-5-oxo-4-(2-propynyl)-4,5-dihydro-[1,2,4]triazolylmethyl=(1R)-trans-3-[(1Z,3E)-2-cyano-1,3-pentadienyl]-2,2-dimethylcyclopropane carboxylate] | 100% |
| C#CCn1c(C)nn(COC(=O)[C@@H]2[C@@H](/C=C(\C#N)C=C)C2(C)C)c1=O [compound of the present invention (1), 3-methyl-5-oxo-4-(2-propynyl)-4,5-dihydro-[1,2,4]triazolylmethyl=(1R)-trans-3-[(1Z)-2-cyano-1,3-butadienyl]-2,2-dimethylcyclopropane carboxylate] | 100% |
